Data on five molecules can be found in patent US20250170159A1, “COMPOSITIONS COMPRISING STING AGONISTS AND METHODS OF USE FOR TREATING GLIOMA” (ImmunoGenesis, Inc., priority 2023, published 2025).

In data set [1] the test system is spontaneous unresected gliomas. Nature of the data set: Intratumoral delivery of STING agonist in spontaneous canine high-grade glioma. The format is in vivo, dog. As for the experimental part:
A single ˜5 mm-diameter burr hole craniectomy was made at entry point determined by Brainsight Neuronavigation System.
A 100 uL-Hamilton syringe secured in a calibrated holder on an x-y stage containing 50 μL of Compound C at varying concentrations
Contrast enhancing target was selected using the MRI reconstruction.
Compound of Formula C was injected at a rate of 2 uL/minute.
Compound of Formula C was administered via repeated intratumoral injections up to 20 μg in 50 uL in a large animals (canines) with spontaneous unresected gliomas.

The subject of data set [2] is spontaneous unresected gliomas. Particulars: dogs; previously shown (ref 12); cited from earlier work.
Another data set deals with QPP8 glioma cells. To be noted: administered on days 14, 21, and 28.
For a further data set, the system named is human U87 glioma cells. Kind of data set: Humanized mice implanted with human U87 glioma cells. It counts as in vivo, mouse. The text has this: . (FIG. 15A) Multiplexed sequential immunofluorescence images of the STING expression at baseline in humanized mouse brain implanted with U87 glioma cells and collected at endpoint. The right image represents a high magnification of the white box drawn in the left image. The white arrows highlight CD31+STING+ vessels and green arrows highlight the CD163+STING+ macrophages. […] Scale bars: 500 μm (left panel) and 50 μm (right panel). A higher magnification image of a CD163+STING+ cell is represented at the upper right quadrant of the right image (scale bar: 20 μm). […] MFI, mean fluorescence intensity; h, human; TAM, tumor-associated macrophage; Mono, monocyte; PMN, […]; MDSC, myeloid-derived suppressor cell. […] The markers were assessed via Cytek Aurora flow cytometer and the CD45+CD11b+ population was analyzed for the indicated markers. *P<0.05; ** P<0.01; *** P<0.001; **** P<0.0001 by 2-tailed Student's t test (FIGS. 15E-H).
STING expression on human and murine glioma cells was analyzed (FIG. 15A). […] To evaluate whether this treatment induces an inflammatory response directed against the CNS, the mice were evaluated daily. […]

The next data set has as its system GL261 glioma cells. Particulars: FIG. 18B left panel; control MS 25 days.
For a further data set, the system named is CT-2A glioma cells. To be noted: FIG. 18B right panel; control MS 28 days.
A further data set has as its target T1, PD-1: PD-L1 (Homo sapiens, UniProt Q9NZQ7).
T1 construct: expressed in transfected cells; host or cells: PD-1 expressing effector cells and PD-L1+ artificial antigen presenting cells
Kind of data set: PD-1 pathway blockade reporter cell assay, PD-L1+ cells. It counts as cell-based. To be noted: FIG. 9. As to the method:
(§1) A dose range of 50.000-0.015 nM was tested against PD-L1+ cells (FIG. 9A), PD-L2+ cells (FIG. 9B), and a 50:50 mixture of PD-L1+ and PD-L2+ cells (FIG. 9C). Nonlinear regression was used to generate best-fit curves in GraphPad Prism.
(§2) The ability of Ab-27907 to interrupt the PD-1 pathway through binding of the ligands PD-L1 and PD-L2 was tested in a reporter cell system. In this assay, PD-1 expressing effector cells are incubated with artificial antigen presenting cells expressing PD-L1 or PD-L2 with a T cell receptor (TCR). Without any antibodies, luminescence activity is low, as PD-1 binds its ligands, preventing TCR engagement and production of luciferase.

The next data set deals with T2, PD-1: PD-L2 (Homo sapiens, UniProt Q9BQ51).
T2 construct: expressed in transfected cells; host or cells: PD-1 expressing effector cells and PD-L2+ artificial antigen presenting cells
T2 sequence (Q9BQ51 20-273): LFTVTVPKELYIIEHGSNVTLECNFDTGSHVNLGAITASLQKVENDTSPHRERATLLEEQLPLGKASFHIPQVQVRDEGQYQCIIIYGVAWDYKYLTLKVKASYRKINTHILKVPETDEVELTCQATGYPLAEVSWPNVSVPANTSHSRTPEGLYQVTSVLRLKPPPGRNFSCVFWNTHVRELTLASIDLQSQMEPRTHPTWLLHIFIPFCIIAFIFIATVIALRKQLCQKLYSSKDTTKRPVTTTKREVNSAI
Kind of data set: PD-1 pathway blockade reporter cell assay, PD-L2+ cells. It counts as cell-based. Particulars: FIG. 9. As for the experimental part:
as §1, §2

Data set [3] deals with U2940 human B-cell lymphoma, 8505C human thyroid carcinoma, and B16F10-PDL2 murine melanoma tumor cell lines. Nature of the data set: ADCC reporter cell assay. The format is cell-based. To be noted: FIG. 10. As for the experimental part: (§3) A dose range was tested in ADCC (FIGS. 10A, 10C, and 10E) and ADCP FIGS. 10B, 10C, and 10F) assays against U2940 human B-cell lymphoma (FIGS. 10A and 10B), 8505C human thyroid carcinoma (FIGS. 10C and 10D), and B16F10-PDL2 murine melanoma (FIGS. 10E, and 10F) tumor cell lines.

The test system is the same in data set [4]. Nature of the data set: ADCP reporter cell assay. It counts as cell-based. Particulars: FIG. 10. As for the experimental part: as §3
In another data set the test system is TS/A tumor. Nature of the data set: TS/A mouse model of mammary carcinoma. To be noted: versus control group.
The test system of a further data set is B16F10-PDL2 tumor. Nature of the data set: B16F10-PDL2 melanoma tumor-bearing mice. Particulars: monotherapy, first 2 weeks.

T1 sequence (Q9NZQ7 19-290): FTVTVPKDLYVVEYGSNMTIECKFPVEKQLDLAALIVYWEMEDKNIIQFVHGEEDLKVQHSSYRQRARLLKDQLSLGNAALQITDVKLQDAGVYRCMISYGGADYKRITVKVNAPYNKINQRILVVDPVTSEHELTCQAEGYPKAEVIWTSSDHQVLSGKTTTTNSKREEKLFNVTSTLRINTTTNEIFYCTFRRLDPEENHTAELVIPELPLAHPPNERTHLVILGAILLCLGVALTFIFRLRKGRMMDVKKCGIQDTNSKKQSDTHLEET
From the text for B16F10-PDL2 tumor: Left: Mean±SEM tumor volume (mm^3) is plotted on the y-axis against days post tumor inoculation on the x-axis. Right: Kaplan Meier plots of survival.
Method for CT-2A glioma cells: As such, we evaluated synergy in the CT-2A and QPP8v immunocompetent murine glioma models. […] To visualize TME features that would be reflective of response, the CT-2A model was treated on day 7 and during the therapeutic window, the activation of the STING pathway (i.e., p-IRF3) and the immune infiltration were analyzed with multiplexed SeqIF imaging.
From the text for GL261 glioma cells: FIG. 18A: Schema of the treatment of immunocompetent mice that underwent i.e. implantation of either GL261 or CT-2A glioma cells. […] FIG. 18C: Schema of the treatment of immunocompetent mice that underwent i.e. implantation of either CT-2A or QPP8v (subclone) glioma cells. […] FIG. 18E: Multiplexed sequential immunofluorescence images of untreated CT-2A gliomas (n=3). […] White boxes outline the portion shown at higher magnification in the right column of images. Scale bars: 500 μm (left 3 columns) and 50 μm (right column).
From the text for QPP8 glioma cells: The total amount of immune cells was quantified based on all live CD45+ cells and specifically on CD11b+Ly6C+ expression of mono-MDSCs. […] Each dot represents an analyzed tumor or LN. FIG. 16E: Expression of immunosuppressive markers CD206 and CD163 spanning myeloid populations and as a function of treatment. FIG. 16F: Myeloid PD-L1 expression on various immune lineages in tumors and LNs.

For the molecule `Nc1ncnc2c1ccn2[C@@H]1O[C@@H]2COP(=O)(S)O[C@@H]3[C@H](O)[C@@H](COP(=O)(S)O[C@H]2[C@H]1O)O[C@H]3n1cnc2c(N)ncnc21` (stereo partly drawn) [Compound C], the “radiographic responses in spontaneously arising high-grade gliomas” value in data set [1] (dog, single injection) was “can produce radiographic responses”. Also, the MTD in data set [1] (repeated intratumoral injections in 50 uL, canines with unresected gliomas) is 15 to 20 µg.
For the molecule `Nc1ncnc2c1ccn2[C@@H]1O[C@@H]2COP(=O)(S)O[C@@H]3[C@H](O)[C@@H](COP(=O)(S)O[C@H]2[C@H]1O)O[C@H]3n1cnc2c(N)ncnc21` (stereo partly drawn) [Compound 8779], the “radiographic regression in spontaneously arising glioblastomas” value in data set [2] is given as “induces radiographic regression”. In addition, the “therapeutic outcome” value with QPP8 glioma cells is listed as “curative”. Also, in the data set with QPP8 glioma cells (control MS=103 days), the “median survival (MS)” value is recorded as “undefined”.
`Nc1ncnc2c1ncn2[C@@H]1O[C@@H]2COP(O)(=S)O[C@@H]3C(O)[C@@H](COP(O)(=S)O[C@H]2[C@H]1O)O[C@H]3n1cnc2c(N)ncnc21` (stereo partly drawn) [MLRR-S2-CDA, reference compound]: in the data set with human U87 glioma cells (both P<0.0001), the “survival of U87 tumor-bearing animals” value was “significantly extended survival”. Besides, the “median survival (MS)” value in the data set on human U87 glioma cells (treated on days 5, 10, and 15, control MS 26.5 days) is listed as 35 days.
As for `C[C@H](NC(=O)/C(C#N)=C/c1cccc(Br)n1)c1ccccc1` [WP1066, reference compound], the “median survival (MS)” value is recorded as 30 days in the data set on GL261 glioma cells and 28 days with CT-2A glioma cells.

B1: Ab-27907: dual functioning PD-L1/PD-L2 monoclonal antibody; Fc point mutations enhance cell-mediated effector functions (antibody, V domains shown)
VH: QVQLVESGGGVIQPGRSLRLSCAASGFTFSAYLMHWVRQAPGKGLEWVAAIGYDGMNKYYADSVKGRFTISRDNSKNTLYLQMNSLRAEDTAVYYCARAGIEYSYAYTDYWGQGTLVTVSS
VL: EIVLTQSPGTLSLSPGERATLSCRASQFVYSSDLAWYQQKPGQAPRLLIYGASARAAGIPDRFSGSGSGTDFTLTISRLEPEDFAVYYCMQFGWWPPRTFGGGTKVEIK
Consider B1, for which the “blockade of PD-1: PD-L1” value in the data set with PD-1: PD-L1 was “blocks PD-1: PD-L1 as well as pembrolizumab”. Moreover, in the data set with PD-1: PD-L2, the “blockade of PD-1: PD-L2” value is “additionally blocks PD-1: PD-L2”. Besides, the “capacity to induce ADCC” value in [3] is reported as “robust activity”. Moreover, the “capacity to induce ADCP” value in [4] is “robust activity”. Moreover, in the data set with TS/A tumor, the “survival” value is “significant extended survival”. Besides, the tumor growth entry in the data set on B16F10-PDL2 tumor is listed as “significantly inhibited tumor growth”.
